Patent US20110208153A1, “FORMULATIONS AND METHODS FOR NUTRIENT DELIVERY” (priority 2010, published 2011)

Test system: pre-retinal neovascularization
Test: pre-retinal neovascularization in the OIR mouse model following gavage treatments
Type: in vivo
Settings: for pre-retinal neovascularization relative to vehicle control: P<0.05
Description: FIG. 1 provides a graphical summary of the analysis of pre-retinal neovascularization levels in the mouse model following gavage treatments. The numbers in brackets in the legend refer to gavage doses in g/kg bodyweight/day. An * indicates P-values<0.05.

Compound	pre-retinal neovascularization relative to vehicle control (2.5 g/kg body weight/day) [%]	effect on pre-retinal neovascularization (in words)	pre-retinal neovascularization relative to vehicle control (5 g/kg of body weight/day) [%]
CC/C=C\C/C=C\C/C=C\C/C=C\C/C=C\C/C=C\CCC(=O)O [DHA, docosahexaenoic acid]	49±4	–	–
arginyl-glutamine dipeptide [Arg-Gln dipeptide]	–	dose-dependent reduction	39±6
